Data on one compound can be found in patent US11524096B2, “Wetting agent formulation” (TELEFLEX LIFE SCIENCES PTE. LTD., priority 2016, dated 2022).

For data set [1] the following is noted: without propylene glycol; cited from earlier work.
The nature of data set [2]: Relative dissolution of propyl gallate depending on sequence of mixing steps. The class given is physicochemical. The source says:
In the case where glycerol is employed, it may be necessary to add some heat to the solution in order to achieve full dissolution of the propyl gallate. Further, the sequence of the mixing steps and its effect on the relative dissolution of propyl gallate when all component concentrations and temperature are kept constant, is as follows: • Addition of propylene glycol to propyl gallate, then addition of saline or distilled water: fast reaction (high rate of dissolution of propyl gallate); • Addition of saline/distilled water to propyl gallate, then addition of propylene glycol: slow reaction (low rate of dissolution of propyl gallate); • Addition of propylene glycol to saline/distilled water, then addition of propyl gallate: fast reaction (high rate of dissolution of propyl gallate); • Employing glycerol instead of propylene glycol: slow reaction (low rate of dissolution of propyl gallate).

For the compound `CCCOC(=O)c1cc(O)c(O)c(O)c1` [PG, propyl 3,4,5-trihydroxybenzoate], the “solubility in water (in words)” value in data set [1] is “only slightly soluble”. The “rate of dissolution of propyl gallate” value in data set [2] (Addition of propylene glycol to propyl gallate, then addition of saline or distilled water, concentrations and temperature constant) was “fast reaction”; in data set [2] (Addition of propylene glycol to saline/distilled water, then addition of propyl gallate), “fast reaction”; in data set [2] (Addition of saline/distilled water to propyl gallate, then addition of propylene glycol), “slow reaction”; in data set [2] (Employing glycerol instead of propylene glycol) it was “slow reaction”.
